Assay results taken from ChEMBL document CHEMBL4138123, “Design, synthesis and biological evaluation of novel pyrazolochalcones as potential modulators of PI3K/Akt/mTOR pathway and inducers of apoptosis in breast cancer cells” (Eur J Med Chem, 2017).

What was measured:
Assay type in all cases: functional
[1] = tested on: KM12; test: Cytotoxicity against human KM12 cells assessed as growth inhibition after 48 hrs by sulforhodamine B assay; conditions: KM12, 48 h
[2] = tested on: SN12C; test: Cytotoxicity against human SN12C cells assessed as growth inhibition after 48 hrs by sulforhodamine B assay
[3] = tested on: Hs-578T; test: Cytotoxicity against human Hs 578T cells assessed as growth inhibition after 48 hrs by sulforhodamine B assay
[4] = tested on: OVCAR-3; test: Cytotoxicity against human OVCAR3 cells assessed as cell growth at 0.01 uM after 48 hrs by sulforhodamine B assay relative to control; conditions: OVCAR-3, 48 h, read-out: Activity
[5] = tested on: HL-60(TB); test: Cytotoxicity against human HL-60(TB) cells assessed as cell growth at 0.1 uM after 48 hrs by sulforhodamine B assay relative to control; conditions: HL-60, 48 h, read-out: Activity
[6] = tested on: HCC 2998; test: Cytotoxicity against human HCC2998 cells assessed as cell growth at 0.1 uM after 48 hrs by sulforhodamine B assay relative to control; conditions: HCC 2998, 48 h, read-out: Activity
[7] = tested on: UACC-257; test: Cytotoxicity against human UACC257 cells assessed as cell growth at 0.1 uM after 48 hrs by sulforhodamine B assay relative to control; conditions: UACC-257, 48 h, read-out: Activity
[8] = tested on: UACC-62; test: Cytotoxicity against human UACC62 cells assessed as cell growth at 0.1 uM after 48 hrs by sulforhodamine B assay relative to control; conditions: UACC-62, 48 h, read-out: Activity
[9] = tested on: OVCAR-4; test: Cytotoxicity against human OVCAR4 cells assessed as cell growth at 0.1 uM after 48 hrs by sulforhodamine B assay relative to control; conditions: OVCAR-4, 48 h, read-out: Activity
[10] = tested on: DU-145; test: Cytotoxicity against human DU145 cells assessed as cell growth at 0.1 uM after 48 hrs by sulforhodamine B assay relative to control; conditions: DU-145, 48 h, read-out: Activity
[11] = tested on: RPMI-8226; test: Cytotoxicity against human RPMI8226 cells assessed as cell growth at 1 uM after 48 hrs by sulforhodamine B assay relative to control; conditions: RPMI-8226, 48 h, read-out: Activity
[12] = tested on: NCI-H226; test: Cytotoxicity against human NCI-H226 cells assessed as cell growth at 1 uM after 48 hrs by sulforhodamine B assay relative to control; conditions: NCI-H226, 48 h, read-out: Activity
[13] = tested on: HCC 2998; test: Cytotoxicity against human HCC2998 cells assessed as cell growth at 1 uM after 48 hrs by sulforhodamine B assay relative to control; conditions: HCC 2998, 48 h, read-out: Activity
[14] = tested on: M14; test: Cytotoxicity against human M14 cells assessed as cell growth at 1 uM after 48 hrs by sulforhodamine B assay relative to control; conditions: M14, 48 h, read-out: Activity
[15] = tested on: UACC-257; test: Cytotoxicity against human UACC257 cells assessed as cell growth at 1 uM after 48 hrs by sulforhodamine B assay relative to control; conditions: UACC-257, 48 h, read-out: Activity
[16] = tested on: OVCAR-5; test: Cytotoxicity against human OVCAR5 cells assessed as cell growth at 1 uM after 48 hrs by sulforhodamine B assay relative to control; conditions: OVCAR-5, 48 h, read-out: Activity
[17] = tested on: SK-OV-3; test: Cytotoxicity against human SKOV3 cells assessed as cell growth at 1 uM after 48 hrs by sulforhodamine B assay relative to control; conditions: SK-OV-3, 48 h, read-out: Activity
[18] = tested on: 786-0; test: Cytotoxicity against human 786-0 cells assessed as cell growth at 1 uM after 48 hrs by sulforhodamine B assay relative to control; conditions: 786-0, 48 h, read-out: Activity
[19] = tested on: K562; test: Cytotoxicity against human K562 cells assessed as cell growth at 10 uM after 48 hrs by sulforhodamine B assay relative to control; conditions: K562, 48 h, read-out: Activity
[20] = tested on: NCI-H322M; test: Cytotoxicity against human NCI-H322M cells assessed as cell growth at 10 uM after 48 hrs by sulforhodamine B assay relative to control; conditions: read-out: Activity
[21] = tested on: UACC-257; test: Cytotoxicity against human UACC257 cells assessed as cell growth at 10 uM after 48 hrs by sulforhodamine B assay relative to control; conditions: UACC-257, 48 h, read-out: Activity
[22] = tested on: OVCAR-3; test: Cytotoxicity against human OVCAR3 cells assessed as cell growth at 10 uM after 48 hrs by sulforhodamine B assay relative to control; conditions: OVCAR-3, 48 h, read-out: Activity
[23] = tested on: SK-OV-3; test: Cytotoxicity against human SKOV3 cells assessed as cell growth at 10 uM after 48 hrs by sulforhodamine B assay relative to control; conditions: SK-OV-3, 48 h, read-out: Activity
[24] = tested on: PC-3; test: Cytotoxicity against human PC3 cells assessed as cell growth at 10 uM after 48 hrs by sulforhodamine B assay relative to control; conditions: PC-3, 48 h, read-out: Activity
[25] = tested on: BT-549; test: Cytotoxicity against human BT549 cells assessed as cell growth at 10 uM after 48 hrs by sulforhodamine B assay relative to control; conditions: BT-549, 48 h, read-out: Activity
[26] = tested on: T47D; test: Cytotoxicity against human T47D cells assessed as cell growth at 10 uM after 48 hrs by sulforhodamine B assay relative to control; conditions: read-out: Activity
[27] = tested on: RPMI-8226; test: Cytotoxicity against human RPMI8226 cells assessed as cell growth at 100 uM after 48 hrs by sulforhodamine B assay relative to control; conditions: RPMI-8226, 48 h, read-out: Activity
[28] = tested on: KM12; test: Cytotoxicity against human KM12 cells assessed as cell growth at 100 uM after 48 hrs by sulforhodamine B assay relative to control; conditions: KM12, 48 h, read-out: Activity
[29] = tested on: SF-539; test: Cytotoxicity against human SF539 cells assessed as cell growth at 100 uM after 48 hrs by sulforhodamine B assay relative to control; conditions: SF-539, 48 h, read-out: Activity
[30] = tested on: SK-MEL-28; test: Cytotoxicity against human SK-MEL-28 cells assessed as cell growth at 100 uM after 48 hrs by sulforhodamine B assay relative to control; conditions: SK-MEL-28, 48 h, read-out: Activity
[31] = tested on: SK-MEL-5; test: Cytotoxicity against human SK-MEL-5 cells assessed as cell growth at 100 uM after 48 hrs by sulforhodamine B assay relative to control; conditions: SK-MEL-5, 48 h, read-out: Activity
[32] = tested on: UACC-62; test: Cytotoxicity against human UACC62 cells assessed as cell growth at 100 uM after 48 hrs by sulforhodamine B assay relative to control; conditions: UACC-62, 48 h, read-out: Activity
[33] = tested on: OVCAR-3; test: Cytotoxicity against human OVCAR3 cells assessed as cell growth at 100 uM after 48 hrs by sulforhodamine B assay relative to control; conditions: OVCAR-3, 48 h, read-out: Activity
[34] = tested on: TK-10; test: Cytotoxicity against human TK10 cells assessed as cell growth at 100 uM after 48 hrs by sulforhodamine B assay relative to control; conditions: TK-10, 48 h, read-out: Activity
[35] = tested on: NCI/ADR-RES; test: Cytotoxicity against human NCI/ADR-RES cells assessed as cell growth at 0.01 uM after 48 hrs by sulforhodamine B assay relative to control; conditions: read-out: Activity
[36] = tested on: UO-31; test: Cytotoxicity against human UO31 cells assessed as cell growth at 10 uM after 48 hrs by sulforhodamine B assay relative to control; conditions: UO-31, 48 h, read-out: Activity

COc1ccc(C(=O)/C=C/c2cc(-c3ccc4c(c3)OCO4)n[nH]2)cc1OC
LC50 [1]: 34.9 µM | TGI [1]: 9.48 µM | LC50 [2]: 53.7 µM | TGI [2]: 13.6 µM | GI50 [3]: 2.69 µM | LC50 [3]: > 100 µM | TGI [3]: 8.21 µM | growth at 0.01 µM [4]: 103% | growth at 0.1 µM [5]: 96% | growth at 0.1 µM [6]: 97% | growth at 0.1 µM [7]: 95% | growth at 0.1 µM [8]: 100% | growth at 0.1 µM [9]: 94% | growth at 0.1 µM [10]: 100% | growth at 1 µM [11]: 51% | growth at 1 µM [12]: 106% | growth at 1 µM [13]: 104% | growth at 1 µM [14]: 100% | growth at 1 µM [15]: 93% | growth at 1 µM [16]: 86% | growth at 1 µM [17]: 99% | growth at 1 µM [18]: 94% | growth at 10 µM [19]: 4% | growth at 10 µM [20]: -15% | growth at 10 µM [21]: 42% | growth at 10 µM [22]: -47% | growth at 10 µM [23]: 17% | growth at 10 µM [24]: 16% | growth at 10 µM [25]: -57% | growth at 10 µM [26]: 22% | growth at 100 µM [27]: -45% | growth at 100 µM [28]: -90% | growth at 100 µM [29]: -83% | growth at 100 µM [30]: -89% | growth at 100 µM [31]: -95% | growth at 100 µM [32]: -94% | growth at 100 µM [33]: -67% | growth at 100 µM [34]: -58%

COc1ccc(-c2cc(/C=C/C(=O)c3ccc(N)cc3)[nH]n2)cc1
GI50 [1]: 1.54 µM | LC50 [1]: 7.61 µM | TGI [1]: 3.42 µM | GI50 [2]: 1.89 µM | LC50 [2]: 34.9 µM | TGI [2]: 6.63 µM | GI50 [3]: 4.04 µM | LC50 [3]: > 100 µM | TGI [3]: 24.4 µM | growth at 0.01 µM [35]: 101% | growth at 0.01 µM [4]: 104% | growth at 0.1 µM [5]: 97% | growth at 0.1 µM [6]: 98% | growth at 0.1 µM [7]: 97% | growth at 0.1 µM [8]: 97% | growth at 0.1 µM [9]: 105% | growth at 0.1 µM [10]: 100% | growth at 1 µM [11]: 36% | growth at 1 µM [12]: 86% | growth at 1 µM [13]: 100% | growth at 1 µM [14]: 105% | growth at 1 µM [15]: 90% | growth at 1 µM [16]: 92% | growth at 1 µM [17]: 105% | growth at 1 µM [18]: 88% | growth at 10 µM [19]: 4% | growth at 10 µM [20]: -2% | growth at 10 µM [21]: -54% | growth at 10 µM [22]: -70% | growth at 10 µM [23]: 23% | growth at 10 µM [36]: -88% | growth at 10 µM [25]: -37% | growth at 10 µM [26]: -1% | growth at 100 µM [27]: -67% | growth at 100 µM [28]: -78% | growth at 100 µM [29]: -94% | growth at 100 µM [30]: -81% | growth at 100 µM [31]: -100% | growth at 100 µM [32]: -93% | growth at 100 µM [33]: -85% | growth at 100 µM [34]: -91%
